Test results as given in the NIST ThermoML archive (doi:10.1021/je200788z).
± gives the expanded uncertainty stated by the source.

Legend:
[1] = refractive index (Na D-line) (dimensionless); details: 101.33 kPa, Liquid, Standard Abbe refractometry
[2] = 101.33 kPa, Liquid; for speed of sound: Sing-around technique in a fixed-path interferometer; for mass density: Vibrating tube method

SMILES	refractive index ([1]; 288.15 K)	refractive index ([1]; 293.15 K)	refractive index ([1]; 298.15 K)	refractive index ([1]; 303.15 K)	refractive index ([1]; 308.15 K)	refractive index ([1]; 313.15 K)	refractive index ([1]; 318.15 K)	refractive index ([1]; 323.15 K)	refractive index ([1]; 328.15 K)	refractive index ([1]; 333.15 K)	refractive index ([1]; 338.15 K)	refractive index ([1]; 343.15 K)	speed of sound ([2]; 288.15 K)	speed of sound ([2]; 293.15 K)	speed of sound ([2]; 298.15 K)	speed of sound ([2]; 303.15 K)	speed of sound ([2]; 308.15 K)	speed of sound ([2]; 313.15 K)	speed of sound ([2]; 318.15 K)	speed of sound ([2]; 323.15 K)	further results
CC(C)COC(=O)[C@H](C)[NH3+].CCCCCCCCCCCCOS(=O)(=O)[O-] [(S)-1-isobutoxy-1-oxopropan-2-aminium dodecyl sulfate]	1.456 ± 0.0011	1.454 ± 0.0011	1.452 ± 0.0011	1.45 ± 0.0011	1.4479 ± 0.0011	1.4458 ± 0.0011	1.4437 ± 0.0011	1.4418 ± 0.0011	1.4397 ± 0.0011	1.4377 ± 0.0011	1.4354 ± 0.0011	1.4336 ± 0.0011	1447.6 ± 5.1 m/s	1423.6 ± 5.1 m/s	1401.9 ± 5 m/s	1381.6 ± 5 m/s	1362.5 ± 5 m/s	1343.9 ± 5 m/s	1325.8 ± 5 m/s	1308.1 ± 5 m/s	mass density ([2]; 288.15 K): 1049.18 ± 6 kg/m3; mass density ([2]; 293.15 K): 1045.48 ± 5.9 kg/m3; mass density ([2]; 298.15 K): 1041.75 ± 5.9 kg/m3; mass density ([2]; 303.15 K): 1038.02 ± 5.8 kg/m3; mass density ([2]; 308.15 K): 1034.13 ± 5.8 kg/m3; mass density ([2]; 313.15 K): 1030.13 ± 5.7 kg/m3; mass density ([2]; 318.15 K): 1026.31 ± 5.7 kg/m3; mass density ([2]; 323.15 K): 1022.6 ± 5.7 kg/m3; speed of sound ([2]; 328.15 K): 1291.2 ± 5 m/s; mass density ([2]; 328.15 K): 1019.08 ± 5.6 kg/m3; speed of sound ([2]; 333.15 K): 1275.8 ± 5 m/s; mass density ([2]; 333.15 K): 1015.6 ± 5.6 kg/m3; speed of sound ([2]; 338.15 K): 1261 ± 5 m/s; mass density ([2]; 338.15 K): 1012.14 ± 5.5 kg/m3; speed of sound ([2]; 343.15 K): 1246.6 ± 5 m/s; mass density ([2]; 343.15 K): 1008.75 ± 5.5 kg/m3
CC(C)COC(=O)[C@@H]1CCC[NH2+]1.CCCCCCCCCCCCOS(=O)(=O)[O-] [(S)-2-(isobutoxycarbonyl)pyrrolidinium dodecyl sulfate]	1.4648 ± 0.0011	1.4623 ± 0.0011	1.4598 ± 0.0011	1.4574 ± 0.0011	1.4549 ± 0.0011	1.4524 ± 0.0011	1.45 ± 0.0011	1.4477 ± 0.0011	1.4452 ± 0.0011	1.4427 ± 0.0011	1.4401 ± 0.0011	1.4378 ± 0.0011	1460.2 ± 5.1 m/s	1445.2 ± 5.1 m/s	1429.2 ± 5.1 m/s	1413 ± 5 m/s	1397.2 ± 5 m/s	1381.5 ± 5 m/s	1366.1 ± 5 m/s	1349.1 ± 5 m/s	mass density ([2]; 288.15 K): 1043.22 ± 5.9 kg/m3; mass density ([2]; 293.15 K): 1039.54 ± 5.8 kg/m3; mass density ([2]; 298.15 K): 1035.88 ± 5.8 kg/m3; mass density ([2]; 303.15 K): 1032.22 ± 5.8 kg/m3; mass density ([2]; 308.15 K): 1028.57 ± 5.7 kg/m3; mass density ([2]; 313.15 K): 1024.92 ± 5.7 kg/m3; mass density ([2]; 318.15 K): 1021.27 ± 5.6 kg/m3; mass density ([2]; 323.15 K): 1017.72 ± 5.6 kg/m3; speed of sound ([2]; 328.15 K): 1332.9 ± 5 m/s; mass density ([2]; 328.15 K): 1014.21 ± 5.5 kg/m3; speed of sound ([2]; 333.15 K): 1316.8 ± 5 m/s; mass density ([2]; 333.15 K): 1010.85 ± 5.5 kg/m3; speed of sound ([2]; 338.15 K): 1301.5 ± 5 m/s; mass density ([2]; 338.15 K): 1007.61 ± 5.5 kg/m3; speed of sound ([2]; 343.15 K): 1286.2 ± 5 m/s; mass density ([2]; 343.15 K): 1004.98 ± 5.5 kg/m3
CC(C)OC(=O)[C@@H]1CCC[NH2+]1.CCCCCCCCCCCCOS(=O)(=O)[O-] [(S)-2-(isopropoxycarbonyl)pyrrolidin-1-ium dodecyl sulfate]	1.4575 ± 0.0011	1.4559 ± 0.0011	1.4542 ± 0.0011	1.4525 ± 0.0011	1.451 ± 0.0011	1.4492 ± 0.0011	1.4478 ± 0.0011	1.4461 ± 0.0011	1.4446 ± 0.0011	1.4432 ± 0.0011	1.4414 ± 0.0011	1.4398 ± 0.0011	1455.5 ± 5.1 m/s	1436.8 ± 5.1 m/s	1419.2 ± 5.1 m/s	1402.4 ± 5 m/s	1386.3 ± 5 m/s	1370.7 ± 5 m/s	1355.5 ± 5 m/s	1340.6 ± 5 m/s	mass density ([2]; 288.15 K): 1054.33 ± 6 kg/m3; mass density ([2]; 293.15 K): 1050.45 ± 6 kg/m3; mass density ([2]; 298.15 K): 1046.8 ± 5.9 kg/m3; mass density ([2]; 303.15 K): 1043.15 ± 5.9 kg/m3; mass density ([2]; 308.15 K): 1039.52 ± 5.8 kg/m3; mass density ([2]; 313.15 K): 1035.89 ± 5.8 kg/m3; mass density ([2]; 318.15 K): 1032.27 ± 5.8 kg/m3; mass density ([2]; 323.15 K): 1028.73 ± 5.7 kg/m3; speed of sound ([2]; 328.15 K): 1326 ± 5 m/s; mass density ([2]; 328.15 K): 1025.22 ± 5.7 kg/m3; speed of sound ([2]; 333.15 K): 1311.7 ± 5 m/s; mass density ([2]; 333.15 K): 1021.7 ± 5.6 kg/m3; speed of sound ([2]; 338.15 K): 1297.6 ± 5 m/s; mass density ([2]; 338.15 K): 1018.2 ± 5.6 kg/m3; speed of sound ([2]; 343.15 K): 1284 ± 5 m/s; mass density ([2]; 343.15 K): 1014.69 ± 5.6 kg/m3
CC(C)COC(=O)[C@@H](N)C(C)C.CCCCCCCCCCCCOS(=O)(=O)O [isobutyl L-valinate dodecyl sulfate]	1.4568 ± 0.0011	1.4555 ± 0.0011	1.4538 ± 0.0011	1.4519 ± 0.0011	1.4505 ± 0.0011	1.4488 ± 0.0011	1.4471 ± 0.0011	1.4455 ± 0.0011	1.4438 ± 0.0011	1.4422 ± 0.0011	1.4406 ± 0.0011	1.439 ± 0.0011	1434.4 ± 5.1 m/s	1421.3 ± 5.1 m/s	1408.6 ± 5 m/s	1394.6 ± 5 m/s	1379.9 ± 5 m/s	1365.5 ± 5 m/s	1350.9 ± 5 m/s	1335.5 ± 5 m/s	speed of sound ([2]; 328.15 K): 1318.1 ± 5 m/s; speed of sound ([2]; 333.15 K): 1299.9 ± 5 m/s; speed of sound ([2]; 338.15 K): 1275 ± 5 m/s; speed of sound ([2]; 343.15 K): 1249.5 ± 5 m/s
